Experimental data as given in ChEMBL document CHEMBL1201862, “PubChem BioAssay data set” (2004).
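Assay format: 96-well plates, 48-hour exposure. Here, GI50 denotes the concentration required for 50% inhibition of growth.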 Activity calls are given as the source filed them. Rule as the data show it: active = GI50 up to about 1.1 µM and inactive = higher.

Legend:
Test in all cases: NCI tumour cell line growth inhibition, 48 h
[1] = system: 786-0
[2] = system: CAKI-1
[3] = system: CCRF-CEM
[4] = system: HL-60
[5] = system: HOP-62
[6] = system: HT-29
[7] = system: LOX IMVI
[8] = system: NCI-H226
[9] = system: NCI-H460
[10] = system: OVCAR-4
[11] = system: PC-3
[12] = system: SK-MEL-5
[13] = system: SNB-19
[14] = system: SNB-75
[15] = system: SR
[16] = system: TK-10
[17] = system: UACC-62
[18] = system: SF-539

Structure (SMILES) | GI50 [1] | GI50 [2] | GI50 [3] | GI50 [4] | GI50 [5] | GI50 [6] | GI50 [7] | GI50 [8] | GI50 [9] | GI50 [10] | GI50 [11] | GI50 [12] | GI50 [13] | GI50 [14] | GI50 [15] | GI50 [16] | GI50 [17] | GI50 [18]
CC[C@]1(Cc2ccc(OC)c(OC)c2)C=[N+]([O-])O[C@H](OC2CCCC2(c2ccccc2)c2ccccc2)[C@@H]1OC(=O)C(C)(C)C (some centres not stated) | 2.05 µM (inactive) | 4.19 µM (inactive) | 2.6 µM (inactive) | 2.18 µM (inactive) | 2.49 µM (inactive) | 1.86 µM (inactive) | 1.95 µM (inactive) | 3.27 µM (inactive) | 2.69 µM (inactive) | 3.27 µM (inactive) | 3.69 µM (inactive) | 2.03 µM (inactive) | 3.84 µM (inactive) | 3.63 µM (inactive) | 7.93 µM (inactive) | 3.23 µM (inactive) | 3.66 µM (inactive) | 
COc1cccc(-c2nc(-c3cnccn3)n(C/C=C/c3ccccc3)n2)c1 | > 10 µM (inactive) |  | > 10 µM (inactive) |  |  | > 10 µM (inactive) | > 10 µM (inactive) | > 10 µM (inactive) | > 10 µM (inactive) | > 10 µM (inactive) | > 10 µM (inactive) |  | > 10 µM (inactive) | 6.32 µM (inactive) | > 10 µM (inactive) | > 10 µM (inactive) | > 10 µM (inactive) | > 10 µM (inactive)
Nc1nc(N)c2nc(CN(C=O)c3ccc(C(=O)O)cc3)cnc2n1 | 3.05 µM (inactive) | > 28.2 µM (inactive) | 4.15 µM (inactive) | 18.8 µM (inactive) | 14 µM (inactive) | > 100 µM (inactive) | 4.27 µM (inactive) | > 100 µM (inactive) | 7.55 µM (inactive) | > 100 µM (inactive) | 0.668 µM (active) | 63.4 µM (inactive) | > 42.2 µM (inactive) | > 52.1 µM (inactive) | 10.1 µM (inactive) | > 29.2 µM (inactive) | 7.11 µM (inactive) | 8.26 µM (inactive)
CC(=O)O[C@H]1C(=O)[C@@]2(C)[C@H]([C@H](OC(=O)c3ccccc3)[C@]3(O)C[C@H](OC(=O)[C@H](O)[C@@H](NC(=O)C(C)(C)C)c4ccccc4)C(C)=C1C3(C)C)[C@]1(OC(C)=O)CO[C@@H]1C[C@@H]2O | 0.324 µM (active) | 1.56 µM (inactive) | 0.0397 µM (active) | 0.018 µM (active) | 0.215 µM (active) | 0.0414 µM (active) | 0.0542 µM (active) | 0.428 µM (active) | 0.0955 µM (active) | > 10 µM (inactive) | 0.0565 µM (active) | 0.0435 µM (active) | 2.35 µM (inactive) | 0.0555 µM (active) | 0.0405 µM (active) | 0.38 µM (active) | 0.0485 µM (active) | 0.0585 µM (active)
